The term IC50 denotes the concentration that inhibits the measured activity by half.

The source of these data is patent US9745287B2, “Pyrimidines and use thereof” (Purdue Pharma L.P., priority 2013, dated 2017).

Each structure is given as a SMILES string. Like-named read-outs stand apart in the source and are kept apart here.

The target of one test is human Nav1.7 (Homo sapiens (Human), UniProt Q15858). Nature of the test: FLIPR or FLIPR TETRA sodium dye assay with KCl and test article pre-incubation. The class given is cell-based.
Sequence of human Nav1.7 (Q15858 other isoform, or with tags, fused parts or gaps): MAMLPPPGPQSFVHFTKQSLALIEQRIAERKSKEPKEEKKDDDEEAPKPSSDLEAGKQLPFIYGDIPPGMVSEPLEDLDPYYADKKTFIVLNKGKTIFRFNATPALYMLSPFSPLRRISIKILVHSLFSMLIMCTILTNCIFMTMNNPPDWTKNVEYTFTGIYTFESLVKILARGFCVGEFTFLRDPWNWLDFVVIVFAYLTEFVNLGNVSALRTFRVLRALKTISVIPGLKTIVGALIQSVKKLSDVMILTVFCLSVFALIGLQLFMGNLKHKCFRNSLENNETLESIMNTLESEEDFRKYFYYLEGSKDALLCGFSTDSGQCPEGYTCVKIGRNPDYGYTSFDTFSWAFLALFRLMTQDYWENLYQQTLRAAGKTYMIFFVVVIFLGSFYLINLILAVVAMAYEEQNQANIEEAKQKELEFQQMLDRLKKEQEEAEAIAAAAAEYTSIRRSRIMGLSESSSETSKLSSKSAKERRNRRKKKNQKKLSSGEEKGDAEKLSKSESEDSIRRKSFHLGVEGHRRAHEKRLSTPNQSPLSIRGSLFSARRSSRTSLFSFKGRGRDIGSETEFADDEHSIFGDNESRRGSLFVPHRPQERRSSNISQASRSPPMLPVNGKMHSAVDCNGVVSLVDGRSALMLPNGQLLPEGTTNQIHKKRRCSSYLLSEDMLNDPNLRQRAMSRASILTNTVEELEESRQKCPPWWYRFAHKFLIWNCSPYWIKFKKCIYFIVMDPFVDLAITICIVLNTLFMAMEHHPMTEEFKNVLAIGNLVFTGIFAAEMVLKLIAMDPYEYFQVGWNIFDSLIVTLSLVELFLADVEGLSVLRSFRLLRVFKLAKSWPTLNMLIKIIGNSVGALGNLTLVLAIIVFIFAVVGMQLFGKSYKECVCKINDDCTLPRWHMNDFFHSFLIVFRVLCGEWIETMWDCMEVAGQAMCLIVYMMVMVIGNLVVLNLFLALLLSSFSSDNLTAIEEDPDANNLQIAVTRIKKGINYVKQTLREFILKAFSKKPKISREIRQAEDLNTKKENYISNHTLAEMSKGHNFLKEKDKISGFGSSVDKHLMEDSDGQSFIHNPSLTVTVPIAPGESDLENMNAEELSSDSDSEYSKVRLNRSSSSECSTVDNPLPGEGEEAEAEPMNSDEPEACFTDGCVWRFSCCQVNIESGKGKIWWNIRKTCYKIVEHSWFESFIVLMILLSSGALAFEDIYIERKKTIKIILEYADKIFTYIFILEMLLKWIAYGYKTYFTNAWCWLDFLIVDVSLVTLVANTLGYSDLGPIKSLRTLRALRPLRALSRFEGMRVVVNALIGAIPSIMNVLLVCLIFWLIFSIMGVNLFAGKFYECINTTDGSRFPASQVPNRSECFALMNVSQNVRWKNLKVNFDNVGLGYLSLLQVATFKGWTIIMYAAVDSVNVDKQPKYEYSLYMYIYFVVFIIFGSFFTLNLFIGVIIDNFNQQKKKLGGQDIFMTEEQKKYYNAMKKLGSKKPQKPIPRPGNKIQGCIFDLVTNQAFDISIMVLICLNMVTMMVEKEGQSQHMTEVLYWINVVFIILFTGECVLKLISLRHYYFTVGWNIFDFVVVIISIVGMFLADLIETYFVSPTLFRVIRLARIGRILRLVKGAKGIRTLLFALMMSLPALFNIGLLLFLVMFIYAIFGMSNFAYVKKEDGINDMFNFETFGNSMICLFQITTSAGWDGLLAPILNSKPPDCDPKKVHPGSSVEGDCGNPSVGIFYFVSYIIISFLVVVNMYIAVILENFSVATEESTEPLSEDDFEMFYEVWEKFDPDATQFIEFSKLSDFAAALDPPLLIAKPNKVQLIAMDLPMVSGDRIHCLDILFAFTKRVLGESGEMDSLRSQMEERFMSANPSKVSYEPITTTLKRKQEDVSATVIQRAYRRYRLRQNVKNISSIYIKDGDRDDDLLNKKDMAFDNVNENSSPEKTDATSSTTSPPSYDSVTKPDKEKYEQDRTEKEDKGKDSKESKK
A further test deals with hNav1.7 (Homo sapiens (Human), UniProt Q15858). Briefly: Electrophysiology (EP) assay, whole-cell patch clamp in hNav1.7 expressing HEK-293 cells. The format is cell-based. As to conditions: affinity for inactivated state of hNav1.7, HEK-293; read-out: Nav1.7 Activity (μM) EP assay Ki. The method, then: Cells Manual Electrophysiology: The hNav1.7 expressing HEK-293 cells are plated on 35 mm culture dishes pre-coated with poly-D-lysine in standard DMEM culture media (Mediatech, Inc., Herndon, Va.) and incubated in a 5% CO2 incubator at 37° C. Cultured cells are used approximately 12-48 hours after plating.
Sequence of hNav1.7 (Q15858 other isoform, or with tags, fused parts or gaps): as above
Cells Automated Electrophysiology: The hNav1.7 expressing HEK-293 cells are plated on tissue culture flasks in standard DMEM culture media (Mediatech, Inc.) and incubated in a 5% CO2 incubator at 37° C. Cultured cells are used approximately 12-48 hours after plating.
Manual Electrophysiology: On the day of experimentation, the 35 mm dish is placed on the stage of an inverted microscope equipped with a perfusion system that continuously perfuses the culture dish with fresh recording media. A gravity driven superfusion system is used to apply test solutions directly to the cell under evaluation. This “shooter” system consists of an array of glass pipettes connected to a motorized horizontal translator. The outlet of the shooter is positioned approximately 100 μm from the cell of interest.
Whole cell currents are recorded using the whole-cell patch clamp configuration using an Axopatch 200B amplifier (Axon Instruments, Foster City, Calif.), 1322A A/D converter (Axon Instruments) and pClamp software (v. 8; Axon Instruments) and stored on a personal computer. Gigaseals are formed and the whole-cell configuration is established in voltage clamp mode, and membrane currents generated by hNav1.7 channels are recorded. Borosilicate glass pipettes with resistance values between 1.5 and 2.0 MΩ when filled with pipette solution are used and series resistance (<5 MΩ) is compensated by 75-80%. Signals are sampled at 50 kHz and low pass filtered at 3 kHz.
Automated Electrophysiology: On the day of experimentation, cells are prepared by removing media and digesting with appropriate enzymes to suspend cells in external solution.
Whole cell currents are recorded using the whole-cell patch clamp configuration using an Patchliner (Nanion Technologies, Munich Germany), EPC 10 quadro amplifiers (HEKA, Bellmore, N.Y.) and PatchControl HT 10905 (Nanion Technologies) and PatchMaster v2x73 software (HEKA) and stored on a personal computer. Gigaseals are formed and the whole-cell configuration is established in voltage clamp mode, and membrane currents generated by hNav1.7 are recorded. NPC-16 chips have resistance values between 1.0 and 2.0 MΩ when filled with pipette solution and series resistance (<5 MΩ). Signals are sampled at 25 kHz and low pass filtered at 3 kHz.
Voltage protocols Manual Electrophysiology: After establishing the whole-cell configuration in voltage clamp mode, voltage protocols are run to establish the 1) test potential (Vmax), 2) holding potential (Vh), and 3) the conditioning potential for each cell.
After establishing the whole-cell configuration in voltage clamp mode, a standard I-V protocol is run to determine the potential at which the maximal current (Imax) is elicited. This potential is the test potential (Vt). To determine a conditioning potential at which 100% of channels are in the inactivated state, a standard steady-state inactivation (SSIN) protocol is run using a series of fifteen 100 ms-long depolarizing prepulses, incrementing in 10 mV steps, immediately followed by a 5 ms testing pulse to Vmax. This protocol also permits determination of the holding potential at which all channels are in the resting state.
For compounds causing significant retardation of recovery from inactivation, an estimate of the affinity for the inactivated state of the channel (Ki) is generated using the following protocol. From the negative, no residual inactivation, holding potential, the cell is depolarized to the conditioning voltage for 2-5 seconds, returned to the negative holding potential for 10-20 ms to relieve fast inactivation and then depolarized to the test potential for ˜15 ms. […]
For orientation: In patch-clamp work, channel activity is measured electrically.

Where [1] appears, read: recombinant human Nav1.7 in HEK293, veratridine + scorpion venom.

Regarding `NC(=O)c1cc(CN[C@H]2CCNC2=O)nc(-c2ccc(Oc3ccc(C4CC4)cn3)cc2)n1` [Compound 14, (S)-2-(4-((5-cyclopropylpyridin-2-yl)oxy)phenyl)-6-(((2-oxopyrrolidin-3-yl)amino)-methyl)pyrimidine-4-carboxamide], the IC50 on human Nav1.7 (setting [1]) came to 3.39 ± 1.15 µM. Further, the Ki on hNav1.7 was 1.41 ± 0.231 µM. Taken in the same sequence, the figures for `NC(=O)c1cc(CN[C@H]2CCNC2=O)nc(-c2ccc(Oc3ccc(Cl)cc3F)cc2)n1` [Compound 15] were 0.065 ± 0.01 µM and 0.041 ± 0.006 µM. Regarding `NC(=O)c1cc(CN2CCC[C@H]2C(N)=O)nc(-c2ccc(Oc3ccc(C(F)(F)F)cc3)cc2)n1` [Compound 16, (S)-6-((2-carbamoylpyrrolidin-1-yl)methyl)-2-(4-(4-(trifluoro-methyl)phenoxy)phenyl)pyrimidine-4-carboxamide], the IC50 at human Nav1.7 (setting [1]) came out at 0.085 ± 0.012 µM. Same read-out and setting: then `NC(=O)c1cc(CN[C@H]2CCNC2=O)nc(-c2ccc(Oc3ccc(C(F)(F)F)cc3)cc2)n1` [Compound 20, (S)-6-(((2-oxopyrrolidin-3-yl)amino)methyl)-2-(4-(4-(trifluoromethyl)phenoxy)phenyl)pyrimidine-4-carboxamide], with 0.439 ± 0.023 µM; and `C[C@H](NCc1cc(C(N)=O)nc(-c2ccc(Oc3ccc(C(F)(F)F)cc3)cc2)n1)C(N)=O` [Compound 21, (S)-6-(((1-amino-1-oxopropan-2-yl)amino)methyl)-2-(4-(4-(trifluoromethyl)phenoxy)phenyl)pyrimidine-4-carboxamide], with 0.042 ± 0.006 µM.

For the compound `CC(C)[C@H](NCc1cc(C(N)=O)nc(-c2ccc(Oc3ccc(C(F)(F)F)cc3)cc2)n1)C(N)=O` [Compound 22, (S)-6-(((1-amino-3-methyl-1-oxobutan-2-yl)amino)methyl)-2-(4-(4-(trifluoromethyl)-phenoxy)phenyl)pyrimidine-4-carboxamide], the 50% inhibitory concentration (IC50) at human Nav1.7 (setting [1]) came out at 0.2 ± 0.045 µM. Moreover, the Ki at hNav1.7 was 0.22 ± 0.034 µM. Taken in the same sequence, the figures for `NC(=O)c1cc(CN[C@@H](CO)C(N)=O)nc(-c2ccc(Oc3ccc(C(F)(F)F)cc3)cc2)n1` [Compound 23, (S)-6-(((1-amino-3-hydroxy-1-oxopropan-2-yl)amino)methyl)-2-(4-(4-(trifluoromethyl)-phenoxy)phenyl)pyrimidine-4-carboxamide] were 0.2 ± 0.045 µM and 0.145 ± 0.044 µM. Taken in the same sequence, the figures for `NC(=O)c1cc(CN2C[C@H](O)C[C@H]2C(N)=O)nc(-c2ccc(Oc3ccc(C(F)(F)F)cc3)cc2)n1` [Compound 24, 6-(((2S, 4R)-2-carbamoyl-4-hydroxypyrrolidin-1-yl)methyl)-2-(4-(4-(trifluoromethyl)-phenoxy)phenyl)pyrimidine-4-carboxamide] were 0.583 ± 0.056 µM and 0.342 ± 0.095 µM. As to `NC(=O)c1cc(CN[C@H]2CCNC2=O)nc(-c2ccc(Oc3ccc(C(F)(F)F)cn3)cc2)n1` [Compound 26, (S)-6-(((2-oxopyrrolidin-3-yl)amino)methyl)-2-(4-((5-(trifluoromethyl)pyridin-2-yl)oxy)phenyl)pyrimidine-4-carboxamide], the IC50 on human Nav1.7 (setting [1]) was determined as 1.75 ± 0.6 µM. Also, the Ki at hNav1.7 worked out at 0.662 ± 0.13 µM. Taken in the same sequence, the figures for `NC(=O)c1cc(CN2CCNC(=O)C2)nc(-c2ccc(Oc3ccc(C(F)(F)F)cc3)cc2)n1` [Compound 27, 6-((3-oxopiperazin-1-yl)-methyl)-2-(4-(4-(trifluoro-methyl)phenoxy)phenyl)pyrimidine-4-carboxamide] were 0.072 ± 0.008 µM and 0.08 ± 0.027 µM. In the case of `NC(=O)c1cc(CN2CCNC(=O)C2)nc(-c2ccc(Oc3ccc(C(F)(F)F)cn3)cc2)n1` [Compound 28, 6-((3-oxopiperazin-1-yl)-methyl)-2-(4-((5-(trifluoro-methyl)pyridin-2-yl)oxy)-phenyl)pyrimidine-4-carboxamide], the 50% inhibitory concentration (IC50) against human Nav1.7 worked out at 2.45 ± 0.133 µM. `O=C1NCC[C@@H]1NCc1cc([C@H](O)CO)nc(-c2ccc(Oc3ccc(OC(F)(F)F)cc3)cc2)n1` [Compound 40, (S)-3-(((6-((S)-1,2-dihydroxyethyl)-2-(4-(4-(trifluoromethoxy)phenoxy)phenyl)pyrimidin-4-yl)methyl)-amino)pyrrolidin-2-one]: the IC50 at human Nav1.7 (setting [1]) stood at 1.55 ± 0.215 µM. Moreover, the Ki at hNav1.7 came to 2.68 ± 0.206 µM. Compound `O=C1CN(Cc2cc([C@H](O)CO)nc(-c3ccc(Oc4ccc(OC(F)(F)F)cc4)cc3)n2)CCN1` [Compound 41, (S)-4-((6-(1,2-dihydroxyethyl)-2-(4-(4-(trifluoromethoxy)-phenoxy)phenyl)pyrimidin-4-yl)methyl)piperazin-2-one] came in with an IC50 against human Nav1.7 of 1.19 ± 0.11 µM. Moreover, the Ki on hNav1.7 was determined as 0.875 ± 0.167 µM.

Take `NC(=O)c1cc(CO)nc(C2=CCC(Oc3ccc(C(F)(F)F)cc3)CC2)n1` (stereo not drawn) [Compound 54, 6-(hydroxymethyl)-2-(4-(4-(trifluoromethyl)phenoxy)cyclohex-1-en-1-yl)pyrimidine-4-carboxamide]: the half-maximal inhibitory concentration (IC50) at human Nav1.7 (setting [1]) was found to be 0.242 ± 0.023 µM. Turning to `NC(=O)c1cc(CN[C@@H]2CCNC2=O)nc(C2=CCC(Oc3ccc(C(F)(F)F)cc3)CC2)n1` (stereo partly drawn) [Compound 56, 6-((((R)-2-oxopyrrolidin-3-yl)amino)methyl)-2-(4-(4-(trifluoromethyl)phenoxy)cyclohex-1-en-1-yl)pyrimidine-4-carboxamide], the IC50 at human Nav1.7 (setting [1]) was 0.544 ± 0.062 µM. For the same compound, the Ki at hNav1.7 was 0.117 ± 0.01 µM.

As for `C[C@H](NCc1cc(C(N)=O)nc(C2=CCC(Oc3ccc(C(F)(F)F)cc3)CC2)n1)C(N)=O` (stereo partly drawn) [Compound 57], the IC50 at human Nav1.7 (setting [1]) stood at 0.557 ± 0.049 µM. The Ki at hNav1.7 amounted to 0.175 ± 0.039 µM. Taken in the same sequence, the figures for `NC(=O)c1cc(CN[C@@H](CO)C(N)=O)nc(C2=CCC(Oc3ccc(C(F)(F)F)cc3)CC2)n1` (stereo partly drawn) [Compound 58, 6-((((S)-1-amino-3-hydroxy-1-oxopropan-2-yl)amino)-methyl)-2-(4-(4-(trifluoromethyl)-phenoxy)cyclohex-1-en-1-yl)pyrimidine-4-carboxamide] were 1.47 ± 0.091 µM and 0.524 ± 0.161 µM. Consider `NC(=O)c1cc(CN2CCNC(=O)C2)nc(C2=CCC(Oc3ccc(C(F)(F)F)cc3)CC2)n1` (stereo not drawn) [Compound 59, 6-((3-oxopiperazin-1-yl)-methyl)-2-(4-(4-(trifluoro-methyl)phenoxy)cyclohex-1-en-1-yl)pyrimidine-4-carboxamide], for which the IC50 against human Nav1.7 was 0.07 ± 0.003 µM. Besides, on hNav1.7, the Ki was 0.059 ± 0.018 µM. `CC1(C)C(=O)NCCN1Cc1cc(C(N)=O)nc(-c2ccc(Oc3ccc(C(F)(F)F)cn3)cc2)n1` [Compound 60, 6-((2,2-dimethyl-3-oxopiperazin-1-yl)methyl)-2-(4-((5-(trifluoromethyl)pyridin-2-yl)oxy)phenyl)pyrimidine-4-carboxamide]: on human Nav1.7 (setting [1]), the IC50 was above 20 µM. In turn, `CC1(C)C(=O)NCCN1Cc1cc(C(N)=O)nc(-c2ccc(Oc3ccc(C(F)(F)F)cc3)cc2)n1` [Compound 61, 6-((2,2-dimethyl-3-oxopiperazin-1-yl)methyl)-2-(4-(4-(trifluoromethyl)phenoxy)-phenyl) pyrimidine-4-carboxamide] had an IC50 against human Nav1.7 of 0.627 ± 0.022 µM. As to `NC(=O)c1cc(CN2CC(=O)NC(=O)C2)nc(-c2ccc(Oc3ccc(C(F)(F)F)cc3)cc2)n1` [Compound 62, 6-((3,5-dioxopiperazin-1-yl)methyl)-2-(4-(4-(trifluoro-methyl)phenoxy)phenyl)pyrimidine-4-carboxamide], the IC50 at human Nav1.7 (setting [1]) is 0.205 ± 0.006 µM. For `NC(=O)c1cc(CN2CC[C@@H](O)[C@H]2C(N)=O)nc(-c2ccc(Oc3ccc(C(F)(F)F)cc3)cc2)n1` [Compound 65, 6-(((2S,3R)-2-carbamoyl-3-hydroxypyrrolidin-1-yl)methyl)-2-(4-(4-(trifluoromethyl)-phenoxy)phenyl)pyrimidine-4-carboxamide], at human Nav1.7 (setting [1]), the IC50 was 0.094 ± 0.008 µM. The Ki on hNav1.7 is 0.046 ± 0.009 µM.
